In patent EP3818828A1 (priority 2019, dated 2021):
Where two headings read alike, the source gives them in different places.

Assays:
Type in all cases: cell-based
[1] = system: Phytophthora infestans; test: microbe, parasite or virus in culture; details: for Average Diameter of the Colony: 1 mg/mL
[2] = system: Phytophthora infestans; details: Phytophthora infestas; 1 mg/mL
[3] = system: Pyricularia grisea; test: microbe, parasite or virus in culture; details: for Average Diameter of the Colony: 1 mg/mL; for inhibition at 1000 µg/mL: read-out: Inhibition Rate
[4] = system: F. graminearum; test: microbe, parasite or virus in culture; details: for Average Diameter of the Colony: F. graminearum, 1 mg/mL; for inhibition at 1000 µg/mL: Fusarium graminearum, read-out: Inhibition Rate
[5] = system: Fusarium graminearum; test: microbe, parasite or virus in culture
[6] = system: Exserohilum turcicum; test: Ex vivo mycelial growth inhibition, growth rate method; details: 1 mg/mL
Description: (§1) 3-(3',4'-methylenedioxy phenyl)-N-n-propyl acrylamide (at a purity of 99%), 3-(3',4'-methylenedioxy phenyl)-piperidine acrylate (at a purity of 99%), the control agents, 96.5% of chlorothalonil technical (non-systemic broad-spectrum fungicide), 97.2% of carbendazim technical (systemic broad-spectrum fungicide), 97.0% of procymidone technical (systemic fungicide), 96.0% of dimethomorphtechnical ((E,Z)-4-[3-(4-chlorphenyl)3-(3,4-dimethoxy phenyl)acryloyl]morpholine, systemic fungicide), 97.0% of azoxystrobin technical (systemic broad-spectrum fungicide).
(§2) The inhibition of samples for testing on the mycelial growth of plant pathogenic fungi for testing is determined with a growth rate method. 3-(3',4'-methylenedioxy phenyl)-N-n-propyl acrylamide, 3-(3',4'-methylenedioxy phenyl)-piperidine acrylate and five control agents are dissolved with dimethyl sulfoxide (DMSO), then formulated at 5-7 concentrations of different gradients for test following the trial test results, with the same concentration of DMSO as the control solvent, each treatment in triplicate. Fungal cakes with a diameter of 4 mm are taken from the edge of the colony, inoculated into the center of a PDA plate containing different agents of different concentrations and the DMSO control, with one piece of fungal cake inoculated in each plate (with a diameter of […]), and incubated in a constant temperature incubator at a temperature of 22±1.5°C. 7 days later (10-20 days may be needed for some pathogenic fungi), the diameter of the colony is measured with a cross over method according to the mycelial growth profile of the control pathogenic fungi, then the inhibition rate of mycelial growth is calculated.
(§3) The computational formula is as below: the inhibition rate of mycelial growth (%) = [(the diameter of the control colony - the diameter of the treated colony)/the diameter of the control colony] × 100.
(§4) The inhibition results of each agent at a concentration of 1 mg/mL on the mycelial growth of plant pathogenic fungi are shown in Tables 1 and 2.

[7] = system: Mycosphaerlla melonis; test: as above; details: 1 mg/mL
Description: as §1, §2, §3, §4

[8] = system: Colletotrichum capsici; test: as above; details: 1 mg/mL
Description: as §1, §2, §3, §4

[9] = system: F. oxysporum f. sp. lini; test: as above; details: 1 mg/mL; for inhibition at 1000 µg/mL: Fusarium oxysporum
Description: as §1, §2, §3, §4

[10] = system: Coniella diplodiella; test: as above; details: 1 mg/mL
Description: as §1, §2, §3, §4

[11] = system: F. oxysporum f. sp. vasinfectum; test: as above; details: 1 mg/mL; for inhibition at 1000 µg/mL: Fusarium oxysporum
Description: as §1, §2, §3, §4

[12] = system: Botrytis cinerea; test: as above; details: 1 mg/mL
Description: as §1, §2, §3, §4

[13] = system: Pythium aphanidermatum; test: as above; details: 1 mg/mL
Description: as §1, §2, §3, §4

[14] = system: Sclerotinia sclerotiorum; test: as above; details: 1 mg/mL
Description: as §1, §2, §3, §4

[15] = system: C. gossypii; test: as above; details: for Average Diameter of the Colony: C. gossypii; for inhibition at 1000 µg/mL: Colletotrichum gossypii, read-out: Inhibition Rate
Description: as §1, §2, §3, §4

[16] = system: Phytophthora capsici; test: as above; details: Phytophthora capsici; 1 mg/mL
Description: as §1, §2, §3, §4

[17] = system: F. verticillioide; test: as above; details: 1 mg/mL
Description: as §1, §2, §3, §4

[18] = system: Rhizoctonia solani; test: as above; details: Rhizoctonia solani; 1 mg/mL
Description: as §1, §2, §3, §4

[19] = system: Thanatephorus cucumeris; test: as above; details: 1 mg/mL
Description: as §1, §2, §3, §4

SMILES	Average Diameter of the Colony [1] [cm]	Average Diameter of the Colony [3] [cm]	inhibition at 1000 µg/mL [3] [%]	Average Diameter of the Colony [4] [cm]	inhibition at 1000 µg/mL [4] [%]	Average Diameter of the Colony [6] [cm]	inhibition at 1000 µg/mL [6] [%]	Average Diameter of the Colony [7] [cm]	inhibition at 1000 µg/mL [7] [%]	Average Diameter of the Colony [9] [cm]	inhibition at 1000 µg/mL [9] [%]	Average Diameter of the Colony [11] [cm]	inhibition at 1000 µg/mL [11] [%]	Average Diameter of the Colony [12] [cm]	inhibition at 1000 µg/mL [12] [%]	Average Diameter of the Colony [14] [cm]	inhibition at 1000 µg/mL [14] [%]	Average Diameter of the Colony ([15]; 1 mg/mL) [cm]	Average Diameter of the Colony [16] [cm]	inhibition at 1000 µg/mL [16] [%]	further results
COC(=O)Nc1nc2ccccc2[nH]1 [Carbendazim, carbendazim]	6.80	0.00	100	1.17	87	9.00	0	0.00	100	0.00	100	0.00	100	0.00	100	0.00	100	0.00	0.00	100	Average Diameter of the Colony [2]: 0.00 cm; Average Diameter of the Colony ([5]; 1 mg/mL): 0.00 cm; inhibition at 1000 µg/mL ([5]; read-out: Inhibition Rate): 100%; Average Diameter of the Colony [8]: 0.00 cm; inhibition at 1000 µg/mL ([8]; Colletotrichum truncatum): 100%; Average Diameter of the Colony [10]: 0.00 cm; inhibition at 1000 µg/mL [10]: 100%; Average Diameter of the Colony [13]: 0.00 cm; inhibition at 1000 µg/mL [13]: 100%; inhibition at 1000 µg/mL ([15]; C. cossypii, 1 mg/mL): 100%; Average Diameter of the Colony [17]: 0.00 cm; inhibition at 1000 µg/mL [17]: 100%; Average Diameter of the Colony [18]: 0.00 cm; inhibition at 1000 µg/mL [18]: 100%; Average Diameter of the Colony [19]: 0.00 cm; inhibition at 1000 µg/mL [19]: 100%
CO/C=C(/C(=O)OC)c1ccccc1Oc1cc(Oc2ccccc2C#N)ncn1 [Azoxystrobin, azoxystrobin]	0.00	4.67	48.1	6.23	30.8	6.50	27.8	3.93	56.3	5.93	34.1	3.03	66.3	4.33	51.9	4.40	51.1	5.37	6.70	25.6	inhibition at 1000 µg/mL ([1]; read-out: Inhibition Rate): 100%; inhibition at 1000 µg/mL [15]: 40.3%
